System: 883617-216-R-J1-PDC complex spheroid viability
Assay: Anticancer human tumor 883617-216-R-J1-PDC patient-derived bladder carcinoma cell line growth inhibition [POLQ]
Conditions: for IC50: curve of first compound; for viability, T/C: stronger effect = lower value
Outline: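 PDC + HUVEC + MSC complex spheroids; POLQ inhibitors ± partner drugs; top conc. at/near clinical Cmax, else 10 microM (SN-38 1 microM), half-log dilutions; 37 degrees C, 5% CO2.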
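Note: spheroids exposed to compounds for seven days before readout.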
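Throughout, for viability, T/C: 100% = DMSO vehicle control viability.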

CC(=O)O[C@H]1C(=O)[C@@]2(C)[C@H]([C@H](OC(=O)c3ccccc3)[C@]3(O)C[C@H](OC(=O)[C@H](O)[C@@H](NC(=O)c4ccccc4)c4ccccc4)C(C)=C1C3(C)C)[C@]1(OC(C)=O)CO[C@@H]1C[C@@H]2O + Nc1ccc(C#CCN(C(=O)Cc2ncc(C(F)(F)F)cc2C(F)(F)F)c2ccc(F)cc2)nn1
IC50 (second compound 0.0316 µM): 11.9 nM
IC50 (second compound 0.1 µM): 10.5 nM
IC50 (second compound 0.316 µM): < 9.49 nM
IC50 (second compound 1 µM): < 9.49 nM
IC50 (second compound 3.16 µM): 10.4 nM
IC50 (second compound 10 µM): 11.6 nM
viability, T/C (second compound 0.0316 µM, first compound 0.00949 µM): 54.8%
viability, T/C (second compound 0.0316 µM, first compound 0.03 µM): 30.9%
viability, T/C (second compound 0.0316 µM, first compound 0.0949 µM): 24.9%
viability, T/C (second compound 0.0316 µM, first compound 0.3 µM): 22.9%
viability, T/C (second compound 0.0316 µM, first compound 0.949 µM): 25.1%
viability, T/C (second compound 0.0316 µM, first compound 3 µM): 22.2%
viability, T/C (second compound 0.1 µM, first compound 0.00949 µM): 52.2%
viability, T/C (second compound 0.1 µM, first compound 0.03 µM): 27.6%
viability, T/C (second compound 0.1 µM, first compound 0.0949 µM): 31.1%
viability, T/C (second compound 0.1 µM, first compound 0.3 µM): 17.8%
viability, T/C (second compound 0.1 µM, first compound 0.949 µM): 18.7%
viability, T/C (second compound 0.1 µM, first compound 3 µM): 24.2%
viability, T/C (second compound 0.316 µM, first compound 0.00949 µM): 51.6%
viability, T/C (second compound 0.316 µM, first compound 0.03 µM): 31.1%
viability, T/C (second compound 0.316 µM, first compound 0.0949 µM): 21.7%
viability, T/C (second compound 0.316 µM, first compound 0.3 µM): 24.8%
viability, T/C (second compound 0.316 µM, first compound 0.949 µM): 34.9%
viability, T/C (second compound 0.316 µM, first compound 3 µM): 36%
viability, T/C (second compound 1 µM, first compound 0.00949 µM): 49.1%
viability, T/C (second compound 1 µM, first compound 0.03 µM): 26.9%
viability, T/C (second compound 1 µM, first compound 0.0949 µM): 23.5%
viability, T/C (second compound 1 µM, first compound 0.3 µM): 20%
viability, T/C (second compound 1 µM, first compound 0.949 µM): 23%
viability, T/C (second compound 1 µM, first compound 3 µM): 31.8%
viability, T/C (second compound 3.16 µM, first compound 0.00949 µM): 50.5%
viability, T/C (second compound 3.16 µM, first compound 0.03 µM): 43.2%
viability, T/C (second compound 3.16 µM, first compound 0.0949 µM): 27.8%
viability, T/C (second compound 3.16 µM, first compound 0.3 µM): 28%
viability, T/C (second compound 3.16 µM, first compound 0.949 µM): 20.7%
viability, T/C (second compound 3.16 µM, first compound 3 µM): 23.5%
viability, T/C (second compound 10 µM, first compound 0.00949 µM): 53.8%
viability, T/C (second compound 10 µM, first compound 0.03 µM): 31.9%
viability, T/C (second compound 10 µM, first compound 0.0949 µM): 27.2%
viability, T/C (second compound 10 µM, first compound 0.3 µM): 26.5%
viability, T/C (second compound 10 µM, first compound 0.949 µM): 28%
viability, T/C (second compound 10 µM, first compound 3 µM): 24.6%

CC[C@@]1(O)C(=O)OCc2c1cc1n(c2=O)Cc2cc3c(CN(C)C)c(O)ccc3nc2-1 + Nc1ccc(C#CCN(C(=O)Cc2ncc(C(F)(F)F)cc2C(F)(F)F)c2ccc(F)cc2)nn1
IC50 (second compound 0.0316 µM): > 100 nM
IC50 (second compound 0.1 µM): > 100 nM
IC50 (second compound 0.316 µM): > 100 nM
IC50 (second compound 1 µM): > 100 nM
IC50 (second compound 3.16 µM): > 100 nM
IC50 (second compound 10 µM): > 100 nM
viability, T/C (second compound 0.0316 µM, first compound 0.000316 µM): 104%
viability, T/C (second compound 0.0316 µM, first compound 0.001 µM): 99.7%
viability, T/C (second compound 0.0316 µM, first compound 0.00316 µM): 99.6%
viability, T/C (second compound 0.0316 µM, first compound 0.01 µM): 84.8%
viability, T/C (second compound 0.0316 µM, first compound 0.0316 µM): 84.5%
viability, T/C (second compound 0.0316 µM, first compound 0.1 µM): 66.1%
viability, T/C (second compound 0.1 µM, first compound 0.000316 µM): 107%
viability, T/C (second compound 0.1 µM, first compound 0.001 µM): 99.6%
viability, T/C (second compound 0.1 µM, first compound 0.00316 µM): 93.3%
viability, T/C (second compound 0.1 µM, first compound 0.01 µM): 101%
viability, T/C (second compound 0.1 µM, first compound 0.0316 µM): 85.7%
viability, T/C (second compound 0.1 µM, first compound 0.1 µM): 68.1%
viability, T/C (second compound 0.316 µM, first compound 0.000316 µM): 97.3%
viability, T/C (second compound 0.316 µM, first compound 0.001 µM): 101%
viability, T/C (second compound 0.316 µM, first compound 0.00316 µM): 89.6%
viability, T/C (second compound 0.316 µM, first compound 0.01 µM): 81.1%
viability, T/C (second compound 0.316 µM, first compound 0.0316 µM): 87.3%
viability, T/C (second compound 0.316 µM, first compound 0.1 µM): 80.9%
viability, T/C (second compound 1 µM, first compound 0.000316 µM): 90.2%
viability, T/C (second compound 1 µM, first compound 0.001 µM): 104%
viability, T/C (second compound 1 µM, first compound 0.00316 µM): 101%
viability, T/C (second compound 1 µM, first compound 0.01 µM): 100%
viability, T/C (second compound 1 µM, first compound 0.0316 µM): 81.5%
viability, T/C (second compound 1 µM, first compound 0.1 µM): 69.7%
viability, T/C (second compound 3.16 µM, first compound 0.000316 µM): 102%
viability, T/C (second compound 3.16 µM, first compound 0.001 µM): 99%
viability, T/C (second compound 3.16 µM, first compound 0.00316 µM): 126%
viability, T/C (second compound 3.16 µM, first compound 0.01 µM): 102%
viability, T/C (second compound 3.16 µM, first compound 0.0316 µM): 75.1%
viability, T/C (second compound 3.16 µM, first compound 0.1 µM): 76.6%
viability, T/C (second compound 10 µM, first compound 0.000316 µM): 122%
viability, T/C (second compound 10 µM, first compound 0.001 µM): 119%
viability, T/C (second compound 10 µM, first compound 0.00316 µM): 116%
viability, T/C (second compound 10 µM, first compound 0.01 µM): 95%
viability, T/C (second compound 10 µM, first compound 0.0316 µM): 91.5%
viability, T/C (second compound 10 µM, first compound 0.1 µM): 91%
